Where two headings read alike, the source gives them in different places.
What was measured:
[1] = molecular target: T1, human α2-GABAA receptor (BZD site, membrane protein of HEK293 cells) (Homo sapiens, UniProt P18507+P47869); assay: Radioligand competitive binding assay (3H-flunitrazepam) at the BZD site of the α2-GABAA receptor
T1 construct: expressed in transfected cells
Description: (§1) α subunit, β subunit, and γ subunit are essential for the formation of a complete and functional GABAA receptor. In this example of the present disclosure, HEK293 cells stably expressing the human α1-GABAA receptor (α1-GABAAR) and α2-GABAA receptor (α2-GABAAR) were constructed and separately selected using the lipofection method (Felgner, P. L., et al. Proceedings of the National Academy of Sciences, 1987, 84: 7413-7417). The α1-GABAAR-HEK293 cell model simultaneously expressed the α1 subunit (for protein sequence, see GenBank accession No.: NM_000806.5), the […] (for protein sequence, see GenBank accession No.: NM_000814.5), and the […] (for protein sequence, see GenBank accession No.: NM_000816.3). The α2-GABAAR-HEK293 cell model simultaneously expressed the α2 subunit (for protein sequence, see GenBank accession No.: NM_000807.4), the β3 subunit (for protein sequence, see GenBank accession No.: NM_000814.5), and the γ2 subunit (for protein sequence, see GenBank accession No.: NM_000816.3).
(§2) The above cell lines were subcultured. The α2-GABAAR-HEK293 cells were expanded for testing the affinity of compounds to the benzodiazepine (BZD) site of the GABAA receptor. During the passage process, some of the α1-GABAAR-HEK293 cells and α2-GABAAR-HEK293 cells were suspended and plated on a slide pre-treated with Poly-D-Lysine for electrophysiological testing (method referenced from patent CN107344936A, paragraph 0586).
The affinity of the compounds for the α2-GABAA receptor was determined by competing for the binding of ^3H-flunitrazepam (isotope ^3H-labelled flunitrazepam) to the BZD site on the membrane protein of HEK293 cells stably expressing the human α2-GABAAR.
Membrane preparation: Cells were suspended in 50 mM Tris-HCl buffer (pH=7.4), homogenized 10 times for 20 seconds with a homogenizer on ice, and centrifuged at 1000 g for 10 minutes at 4° C. The supernatant was taken, and the above steps were repeated. The supernatant was centrifuged at 4° C. (33800 g; Thermo, rotor: A27-8×50) for 60 minutes. The precipitate was resuspended in Tris buffer (50 mM Tris-HCl, 10 mM MgCl2, 0.5 mM EDTA, and 10% glycerol). The protein content was determined (BCA (bicinchoninic acid) protein quantification assay based on copper ion reduction, with a BCA kit purchased from Pierce (Annoron (Beijing) Biotechnology Co., Ltd.)), and 1 mL aliquots were prepared and stored at −80° C.
Radioligand competitive binding assay: This assay was performed in a 200 μL system (96-well plate) containing 100 μL of cell membrane. The concentration of ^3H-flunitrazepam was 1 nM, and the concentrations of the test compounds were in the range of […]. Flumazenil was used as a control. 1 μL of 2 mM flumazenil (final […]) was added to each low signal control (low control, LC) well, and 1 μL of dimethyl sulfoxide was added to each high signal control (high control, HC) well. The final concentration of target membrane protein was […]. All sample stock solutions of test compounds were 10 mM dimethyl sulfoxide solutions. All the samples were diluted to a concentration of 0.2 mM with dimethyl sulfoxide, and then subjected to a 4-fold serial dilution for a total of 8 working concentration gradients. The 96-well plate was sealed with a sealing membrane and then incubated on a shaker at room temperature for 1 hour. Meanwhile, a GF/C filter plate was soaked in plate soaking buffer (0.3% PEI (polyethyleneimine, purchased from Sigma-Aldrich, model: P314), stored at 4° C.) for at least 0.5 hours. After the binding incubation was completed, the cells were harvested onto the GF/C filter plate using a cell harvester and washed four times with plate washing buffer (50 mM Tris-HCl, pH 7.4, stored at 4° C.). After drying in an oven at 50° C. for 1 hour, the dried GF/C filter plate was bottom-sealed. The residual radioactivity on the filter membrane was detected by liquid scintillation counting.

[2] = molecular target: T2, human α2-GABAA receptor (α2-GABAAR-HEK293 cells) (Homo sapiens, UniProt P18507+P47869); assay: Whole-cell patch-clamp electrophysiology, positive allosteric modulatory activity on α2-GABAA receptor; assay type: cell-based; settings: read-out: α2-GABAA positive allosteric modulatory activity
T2 construct: expressed in transfected cells
Description: as §1, §2
(§3) The positive regulatory activity of the test drugs on the α1-GABAA receptor and the α2-GABAA receptor was detected by the electrophysiological method. The specific method was as follows:
(§4) Compound concentration setting: The final concentration of the compounds used for screening was 100 nM. For cell lines expressing the α1-GABAA receptor, the concentration of GABA was 0.05 to 0.07 μM (approximately EC2-4). For cell lines expressing the α2-GABAA receptor, the concentration of GABA was 0.10 to 0.11 μM (approximately EC7-8). Electrophysiological testing was performed using the whole-cell patch-clamp technique, which can refer to the method reported in the literature (Nickolls, S. A., et al. British Journal of Pharmacology, 2018, 175: 708-725). The composition of the extracellular solution (ECS) for electrophysiology was as follows: 150 mM NaCl, 5 mM KCl, 2.5 mM CaCl2, 1 mM MgCl2, 10 mM HEPES, and 10 mM glucose (pH 7.4). The formulation of the intracellular solution (ICS) for electrophysiology was as follows: 140 mM CsCl, 11 mM EGTA, 10 mM HEPES, 2 mM CaCl2, 1 mM MgCl2, 4 mM MgATP, and 2 mM TEA (pH 7.3). GABA (γ-aminobutyric acid) powder was prepared into a mother liquor with pure water, which was then diluted in ECS. The compound was first prepared into a 4 mM mother liquor with dimethyl sulfoxide, which was then gradually diluted in the corresponding concentration of GABA-ECS. The solutions were freshly prepared prior to electrophysiological testing.
(§5) Electrophysiological signal acquisition was performed using an EPC 10 amplifier and PatchMaster software (HEKA) or an Axon 700B amplifier and Clampex software (AXON). The recording electrode was made through a drawing process using borosilicate glass, with an electrode resistance of 4 to 6 MΩ. Extracellular administration was performed using the ALA-VC-8PG™ system. A single, independently growing cell was selected. After the glass electrode formed a good seal with the cell, the membrane was ruptured to form the whole-cell configuration. The cell membrane potential was clamped at −60 mV and recorded in Gap-free mode. During the test, the extracellular solution was first applied extracellularly for approximately 20 seconds. After the baseline (Iprebaseline) stabilized, the extracellular solution was switched to GABA-ECS. At this point, the current induced by GABA (Igaba) could be detected. After approximately 10 to 20 seconds, when the current stabilized, the extracellular solution was switched to a mixture of the compound and GABA-ECS. […]

[3] = molecular target: T3, human α1-GABAA receptor (α1-GABAAR-HEK293 cells) (Homo sapiens, UniProt P14867+P18507); assay: Whole-cell patch-clamp electrophysiology, positive allosteric modulatory activity on α1-GABAA receptor; assay type: cell-based; settings: read-out: α1-GABAA positive allosteric modulatory activity
T3 construct: expressed in transfected cells
Description: as §1, §2, §3, §4, §5

[4] = competition with 1 nM 3H-flunitrazepam, Ki calculated from IC50, read-out: α2 Ki

Row | Structure (SMILES) | Ki [1, 4] [nM] | activation at 0.1 µM [2] [%] | activation at 0.1 µM [3] [%] | Ki [1] [nM] | Ki ([1]; read-out: α2 Ki, competition with 1 nM 3H-flunitrazepam, Ki calculated from IC50) [nM]
1 | CCn1cnc2c(-c3ccc(F)c(-c4cc5cn([C@H]6CCN(C)C[C@@H]6F)nc5cc4OC)c3)cnnc21 (racemic) [Example 63, 7-Ethyl-4-(4-fluoro-3-(2-((3S,4S)-3-fluoro-1-methylpiperidin-4-yl)-6-methoxy-2H-indazol-5-yl)phenyl)-7H-imidazo[4,5-c]pyridazine] | 3.51 | 81 | 37 | – | –
2 | CCn1cnc2c(-c3ccc(F)c(-c4cc5c(cc4OC)ncn5C4COC4)c3)cnnc21 (single isomer, unassigned) [Example 135, 7-Ethyl-4-(4-fluoro-3-(5-methoxy-1-(oxetan-3-yl)-1H-benzo[d]imidazol-6-yl)phenyl)-7H-imidazo[4,5-c]pyridazine] | 28.2 | 142 | 68 | – | –
3 | CCn1cnc2c(-c3ccc(F)c(-c4cc5cc(C(C)=O)c(=O)n(C)c5cc4OC)c3)cnnc21 [Example 1, 3-Acetyl-6-(5-(7-ethyl-7H-imidazo[4,5-c]pyridazin-4-yl)-2-fluorophenyl)-7-methoxy-1-methylquinolin-2(1H)-one] | 6 | 151 | 13 | – | –
4 | CCn1cnc2c(-c3ccc(F)c(-c4ccc5c(nnn5CC)c4COC)c3)cnnc21 [Example 11, 7-Ethyl-4-(3-(1-ethyl-4-(methoxymethyl)-1H-benzo[d][1,2,3]triazol-5-yl)-4-fluorophenyl)-7H-imidazo[4,5-c]pyridazine] | 16.4 | 97 | 75 | – | –
5 | CCn1cnc2c(-c3ccc(F)c(-c4ccc5c(nnn5C)c4COC)c3)cnnc21 [Example 16, 7-Ethyl-4-(4-fluoro-3-(4-(methoxymethyl)-1-methyl-1H-benzo[d][1,2,3]triazol-5-yl)phenyl)-7H-imidazo[4,5-c]pyridazine] | 11.6 | 104 | 38 | – | –
6 | CCn1cnc2c(-c3ccc(F)c(-c4cc5c(cc4OC)N(CCN4CCCC4)C(=O)CO5)c3)cnnc21 [Example 17, 7-(5-(7-Ethyl-7H-imidazo[4,5-c]pyridazin-4-yl)-2-fluorophenyl)-6-methoxy-4-(2-(pyrrolidin-1-yl)ethyl)-2H-benzo[b][1,4]oxazin-3(4H)-one] | – | 125 | 47 | 14.4 | –
7 | CCn1cnc2c(-c3ccc(F)c(-c4cc5c(cc4OC)N(CCN4CCOCC4)C(=O)CO5)c3)cnnc21 [Example 18, 7-(5-(7-Ethyl-7H-imidazo[4,5-c]pyridazin-4-yl)-2-fluorophenyl)-6-methoxy-4-(2-morpholinoethyl)-2H-benzo[b][1,4]oxazin-3(4H)-one] | – | 106 | 30 | – | 13.9
8 | CCn1cnc2c(-c3ccc(F)c(-c4cc5c(cc4OC)N(CCN(C)C)C(=O)CO5)c3)cnnc21 [Example 22, 4-(2-(Dimethylamino)ethyl)-7-(5-(7-ethyl-7H-imidazo[4,5-c]pyridazin-4-yl)-2-fluorophenyl)-6-methoxy-2H-benzo[b][1,4]oxazin-3(4H)-one] | – | 115 | 53 | 10 | –
9 | CCn1cnc2c(-c3ccc(F)c(-c4cc5oc(=O)n(CC6CC6)c5cc4OC)c3)cnnc21 [Example 34, 3-(Cyclopropylmethyl)-6-(5-(7-ethyl-7H-imidazo[4,5-c]pyridazin-4-yl)-2-fluorophenyl)-5-methoxybenzo[d]oxazol-2(3H)-one] | 5.71 | 124 | 70 | – | –

The next lines start with results.

Row | Ki [1, 4] [nM] | activation at 0.1 µM [2] [%] | activation at 0.1 µM [3] [%] | Structure (SMILES) | Ki [1] [nM] | Ki ([1]; read-out: α2 Ki, competition with 1 nM 3H-flunitrazepam, Ki calculated from IC50) [nM]
10 | 4.76 | 130 | 79 | CC[C@H]1Oc2cc(-c3cc(-c4cnnc5c4ncn5CC)ccc3F)c(OC)cc2N(C)C1=O (single isomer, unassigned) [Example 8] | – | –
11 | 14.5 | 114 | 42 | CCn1cnc2c(-c3ccc(F)c(-c4cc5c(cc4OC)N(C)C(=O)C(COC)O5)c3)cnnc21 (single isomer, unassigned) [Example 162] | – | –
12 | 26.9 | 98 | 1 | CCn1cnc2c(-c3ccc(F)c(-c4cc5c(cc4OC)-c4c(cnn4C)CO5)c3)cnnc21 [Example 10, 7-(5-(7-Ethyl-7H-imidazo[4,5-c]pyridazin-4-yl)-2-fluorophenyl)-8-methoxy-1-methyl-1,4-dihydrochromeno[4,3-c]pyrazole] | – | –
13 | 8.95 | 120 | 48 | CCn1cnc2c(-c3ccc(F)c(-c4cc5c(cc4OC)N(C)C(=O)C(C)O5)c3)cnnc21 (stereo not drawn) [Example 26, 7-(5-(7-Ethyl-7H-imidazo[4,5-c]pyridazin-4-yl)-2-fluorophenyl)-6-methoxy-2,4-dimethyl-2H-benzo[b][1,4]oxazin-3(4H)-one] | – | –
14 | 8.56 | 115 | 38 | CCn1cnc2c(-c3ccc(F)c(-c4cc5oc(=O)n(CCOC)c5cc4OC)c3)cnnc21 [Example 28, 6-(5-(7-Ethyl-7H-imidazo[4,5-c]pyridazin-4-yl)-2-fluorophenyl)-5-methoxy-3-(2-methoxyethyl)benzo[d]oxazol-2(3H)-one] | – | –

Reference: patent publication US20260159519A1, “IMIDAZOPYRIDAZINE SUBSTITUTED BENZENE RING DERIVATIVE, PREPARATION METHOD, PHARMACEUTICAL COMPOSITION AND USE” (SHANGHAI SIMR BIOTECHNOLOGY CO., LTD., priority 2022, published 2026)
